Source: ChEMBL document CHEMBL5649166, “RIP3 induces apoptosis independent of pronecrotic kinase activity” (Mol Cell, 2014)

Tests used:
[1] = molecular target: Tyrosine-protein kinase SYK (Homo sapiens) (UniProt P43405); experiment: Inhibition of human SYK using poly[Glu:Tyr] (4:1) as substrate at 1 uM in presence of 32P-ATP by Hotspot assay relative to control; values are per cent of control
[2] = molecular target: T1, Serine/threonine-protein kinase Nek1 (Homo sapiens) (UniProt Q96PY6); experiment: Inhibition of human NEK1 using myelin basic protein as substrate at 1 uM in presence of 32P-ATP by Hotspot assay relative to control; values are per cent of control
T1 sequence (whole entry): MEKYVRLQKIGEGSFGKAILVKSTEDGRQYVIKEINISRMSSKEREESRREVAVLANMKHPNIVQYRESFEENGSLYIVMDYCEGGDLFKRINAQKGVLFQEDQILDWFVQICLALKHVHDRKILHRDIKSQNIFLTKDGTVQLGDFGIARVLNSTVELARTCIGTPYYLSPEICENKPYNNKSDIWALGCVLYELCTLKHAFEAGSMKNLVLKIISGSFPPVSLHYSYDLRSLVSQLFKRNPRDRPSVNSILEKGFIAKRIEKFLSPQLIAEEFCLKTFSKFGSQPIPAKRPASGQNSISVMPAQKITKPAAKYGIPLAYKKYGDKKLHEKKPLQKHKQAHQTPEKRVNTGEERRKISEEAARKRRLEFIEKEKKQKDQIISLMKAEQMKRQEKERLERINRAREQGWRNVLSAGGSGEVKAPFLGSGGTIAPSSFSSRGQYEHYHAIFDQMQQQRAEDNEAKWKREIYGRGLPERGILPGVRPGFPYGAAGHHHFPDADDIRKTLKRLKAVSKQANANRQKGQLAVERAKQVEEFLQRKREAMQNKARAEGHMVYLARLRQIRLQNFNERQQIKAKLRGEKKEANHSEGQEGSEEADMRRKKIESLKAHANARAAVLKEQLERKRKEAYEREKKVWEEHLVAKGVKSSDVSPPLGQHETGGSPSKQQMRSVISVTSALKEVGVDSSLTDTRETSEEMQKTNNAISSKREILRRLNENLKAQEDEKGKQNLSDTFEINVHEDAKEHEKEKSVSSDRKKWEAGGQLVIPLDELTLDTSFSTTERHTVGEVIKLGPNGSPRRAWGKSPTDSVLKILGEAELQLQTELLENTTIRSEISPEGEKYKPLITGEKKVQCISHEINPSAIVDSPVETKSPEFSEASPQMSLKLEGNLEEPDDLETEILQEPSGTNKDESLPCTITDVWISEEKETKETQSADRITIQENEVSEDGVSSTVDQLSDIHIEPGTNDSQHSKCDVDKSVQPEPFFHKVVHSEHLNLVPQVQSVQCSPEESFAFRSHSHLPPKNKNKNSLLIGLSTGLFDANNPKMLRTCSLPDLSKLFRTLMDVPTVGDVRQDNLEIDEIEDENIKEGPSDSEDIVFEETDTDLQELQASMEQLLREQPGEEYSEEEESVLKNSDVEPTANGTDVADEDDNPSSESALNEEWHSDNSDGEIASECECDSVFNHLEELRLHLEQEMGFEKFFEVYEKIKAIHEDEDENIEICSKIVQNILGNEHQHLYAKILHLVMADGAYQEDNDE

[3] = molecular target: Calcium/calmodulin-dependent protein kinase type II subunit beta (Homo sapiens) (UniProt Q13554); experiment: Residual activity of human CAMK2b using KKALRRQETVDAL as substrate at 1 uM in presence of 32P-ATP by Hotspot assay relative to control
[4] = molecular target: Mitogen-activated protein kinase 3 (Homo sapiens) (UniProt P27361); experiment: Inhibition of human ERK1 using myelin basic protein as substrate at 1 uM in presence of 32P-ATP by Hotspot assay relative to control; values are per cent of control
[5] = molecular target: T2, Rhodopsin kinase GRK7 (Homo sapiens) (UniProt Q8WTQ7); experiment: Inhibition of human GRK7 using casein as substrate at 1 uM in presence of 32P-ATP by Hotspot assay relative to control; values are per cent of control
T2 sequence (whole entry): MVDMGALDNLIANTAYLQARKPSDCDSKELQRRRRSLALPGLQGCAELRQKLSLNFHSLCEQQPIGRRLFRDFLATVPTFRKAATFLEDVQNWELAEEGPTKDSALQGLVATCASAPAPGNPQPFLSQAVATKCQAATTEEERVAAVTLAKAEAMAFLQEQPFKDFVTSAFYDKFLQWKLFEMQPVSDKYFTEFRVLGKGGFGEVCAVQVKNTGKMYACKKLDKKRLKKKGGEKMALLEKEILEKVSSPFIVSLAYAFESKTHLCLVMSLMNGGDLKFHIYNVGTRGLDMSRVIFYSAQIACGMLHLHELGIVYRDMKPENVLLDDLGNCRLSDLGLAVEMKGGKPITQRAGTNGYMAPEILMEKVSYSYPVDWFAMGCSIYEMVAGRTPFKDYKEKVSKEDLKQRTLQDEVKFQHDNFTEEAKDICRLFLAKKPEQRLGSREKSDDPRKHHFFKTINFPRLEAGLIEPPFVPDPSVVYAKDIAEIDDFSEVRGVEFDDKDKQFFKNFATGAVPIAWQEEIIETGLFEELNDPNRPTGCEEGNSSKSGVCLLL

Chain of Calcium/calmodulin-dependent protein kinase type II subunit beta (Homo sapiens) (Q13554 whole entry): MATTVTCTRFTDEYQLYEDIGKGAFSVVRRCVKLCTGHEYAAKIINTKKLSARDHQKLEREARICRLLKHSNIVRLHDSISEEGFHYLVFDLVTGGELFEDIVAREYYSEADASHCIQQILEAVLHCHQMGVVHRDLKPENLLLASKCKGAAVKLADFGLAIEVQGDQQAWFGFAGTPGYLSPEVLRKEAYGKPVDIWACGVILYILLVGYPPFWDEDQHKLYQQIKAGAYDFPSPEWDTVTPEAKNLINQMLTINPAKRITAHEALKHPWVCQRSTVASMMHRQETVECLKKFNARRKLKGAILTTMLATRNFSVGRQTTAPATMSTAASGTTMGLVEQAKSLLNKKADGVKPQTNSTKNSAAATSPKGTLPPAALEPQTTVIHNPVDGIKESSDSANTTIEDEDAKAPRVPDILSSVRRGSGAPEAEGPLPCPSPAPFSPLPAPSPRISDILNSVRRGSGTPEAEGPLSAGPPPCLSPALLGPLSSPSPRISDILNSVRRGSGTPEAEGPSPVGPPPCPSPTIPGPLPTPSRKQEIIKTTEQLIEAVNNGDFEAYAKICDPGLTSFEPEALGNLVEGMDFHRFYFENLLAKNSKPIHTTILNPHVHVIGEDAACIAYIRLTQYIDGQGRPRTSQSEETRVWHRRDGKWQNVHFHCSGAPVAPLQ
Chain of Mitogen-activated protein kinase 3 (Homo sapiens) (P27361 whole entry): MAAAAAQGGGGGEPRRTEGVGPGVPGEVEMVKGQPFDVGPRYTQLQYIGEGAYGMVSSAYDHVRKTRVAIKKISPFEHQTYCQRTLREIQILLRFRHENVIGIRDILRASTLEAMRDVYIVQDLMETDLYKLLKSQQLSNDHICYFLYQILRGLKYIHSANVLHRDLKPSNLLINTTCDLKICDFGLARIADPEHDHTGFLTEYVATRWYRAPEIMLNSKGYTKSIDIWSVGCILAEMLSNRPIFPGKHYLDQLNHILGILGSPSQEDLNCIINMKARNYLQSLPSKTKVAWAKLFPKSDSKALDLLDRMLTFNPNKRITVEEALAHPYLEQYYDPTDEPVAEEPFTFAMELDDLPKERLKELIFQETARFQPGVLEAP

Compound	residual activity [1] [%]	residual activity [2] [%]	residual activity [3] [%]	residual activity [4] [%]	residual activity [5] [%]
Cc1cc(-c2cnc(N)c3c(-c4ccc5scnc5c4)csc23)n(C)n1	92.8	97.3	100	93.3	100
CC(C)S(=O)(=O)c1ccc2nccc(Nc3ccc4scnc4c3)c2c1	93.3	88.2	104	89.9	101
CNC(=O)c1ccc2c(c1)ncn2-c1ccc(CC(=O)OC(C)(C)C)cc1	87.5	96.4	98.3	94.7	92.4
